The record followed here is patent US9890138B2, “Diaminopyrimidine derivatives and processes for the preparation thereof” (YUHAN CORPORATION, priority 2011, dated 2018).

SMILES strings stand for the structures.

T1 sequence (Q13639 1-387 isoform Q13639-2): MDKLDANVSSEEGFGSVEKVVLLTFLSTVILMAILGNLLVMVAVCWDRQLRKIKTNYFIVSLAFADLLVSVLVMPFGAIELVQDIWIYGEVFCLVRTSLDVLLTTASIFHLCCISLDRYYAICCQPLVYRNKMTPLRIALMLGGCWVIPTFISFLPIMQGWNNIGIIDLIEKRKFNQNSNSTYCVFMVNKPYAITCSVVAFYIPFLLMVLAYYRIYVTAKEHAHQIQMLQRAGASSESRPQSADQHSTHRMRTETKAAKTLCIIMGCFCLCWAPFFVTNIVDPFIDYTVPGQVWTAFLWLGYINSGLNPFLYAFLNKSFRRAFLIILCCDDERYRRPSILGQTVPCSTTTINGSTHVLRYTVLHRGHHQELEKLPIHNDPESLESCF

This test addresses T1, human 5-HT4(a) (Homo sapiens, UniProt Q13639).
T1 construct: host or cells: GeneBlAzer HTR4-CRE-bla CHO-K1 cells
In words: Evaluation of agonistic activity in CHO-K1 cells expressing human 5-HT4(a) (GeneBlAzer HTR4-CRE-bla CHO-K1, beta-lactamase reporter). The following applies: CHO-K1 cells stably expressing human 5-HT4(a). It counts as cell-based. As to the method: Test Example 1: Evaluation of Agonistic Activity in CHO-K1 Cells Expressing Human 5-HT4(a)
As CHO-K1 cells stably expressing human 5-HT4(a), we used the GeneBlAzer HTR4-CRE-bla CHO-K1 cells (Invitrogen Corp.). The cells were cultured, under the condition of 37[…] and 5% CO2, in a DMEM supplemented with 10% fetal bovine serum (FBS), 25 mM HEPES (pH7.4), 600 μg/ml hygromycin B, 0.1 mM non-essential amino acids, 100 unit/ml penicillin and 100 μg/ml streptomycin. Subcultures were performed three times per one week, each being at less than 80% confluence. At the previous day before treating test compounds, the cells were collected using 0.5% trypsin/EDTA and then diluted with a DMEM supplemented with 1% FBS, 25 mM HEPES, and 0.1 mM non-essential amino acids into 3.125×10^5 cells/ml. 32 μl of the diluted cells were added into 384-well plate (10^4 cells per well) and then incubated overnight. After the overnight culture, 8 μl of the medium having 1% of DMSO was added into the cell-free control well and the non-stimulating control well, respectively. 8 μl of the respective test compound dilutions (which had been prepared by diluting by 100-times with the medium as mentioned in the above) having 1% of DMSO were added to the respective remaining wells. After being cultured in the incubator for 5 hours, the wells of the 384-plate were treated with the substrate solution (8 μl per well) prepared according to the vendor's instruction (i.e., Invitrogen's instruction), and then incubated in the dark room for additional two hours. Agonistic activities on 5-HT4 receptor were evaluated, on the basis of fluorescence values of the cleavage-products by beta-lactamase. After exciting to 410 nm of wavelength using a fluorescence detector (Genios Pro), we measured the fluorescence values at two emission wavelengths (first wavelength: 465 nm, second wavelength: 535 nm). Data were analyzed on the basis of the ratio of fluorescence intensities of each well at the respective wavelengths. Each EC50 value was calculated by non-linear regression analysis using the “GraphPad Prism” program, based on the activities according to 8-different concentrations of the test compounds.
A word on the EC50: it is the midpoint of the concentration-response curve. A low value points to a more potent agent. As to `CCCc1cc(N2CC[C@H](NC(=O)CCN3CCCCC3)C2)nc(Nc2cccc(C#N)c2)n1` [Example 63, (S)-N-{1-[2-(3-cyanophenylamino)-6-propylpyrimidin-4-yl]pyrrolidin-3-yl}-3-(piperidin-1-yl)propanamide], the EC50 stood at 0.13 nM.
To `CCCc1cc(N2CC[C@H](NC(=O)Cc3ccccc3)C2)nc(Nc2cccc(C#N)c2)n1` [Example 66, (S)-N-{1-[2-(3-cyanophenylamino)-6-propylpyrimidin-4-yl]pyrrolidin-3-yl}-2-phenylacetamide] belongs 0.1 nM.
With `CCCc1cc(N2CC[C@H](NC(=O)Cc3ccc(F)cc3)C2)nc(Nc2cccc(C#N)c2)n1` [Example 67, (S)-N-{1-[2-(3-cyanophenylamino)-6-propylpyrimidin-4-yl]pyrrolidin-3-yl}-2-(4-fluorophenyl)acetamide] the figure was 0.19 nM.
`CCCc1cc(N2CC[C@H](NC(=O)CN3CCCCC3)C2)nc(Nc2cccc(C#N)c2)n1` [Example 71, (S)-N-{1-[2-(3-cyanophenylamino)-6-propylpyrimidin-4-yl]pyrrolidin-3-yl}-2-(piperidin-1-yl)acetamide] yielded an EC50 of 0.25 nM.
To `CCCc1cc(N2CC[C@H](NC(=O)Cc3ccc(N)cc3)C2)nc(Nc2cccc(C#N)c2)n1` [Example 73, (S)-2-(4-aminophenyl)-N-{1-[2-(3-cyanophenylamino)-6-propylpyrimidin-4-yl]pyrrolidin-3-yl}acetamide] belongs 0.27 nM; to `CCCc1cc(N2CC[C@H](NC(=O)COC)C2)nc(Nc2cccc(C#N)c2)n1` [Example 75, (S)-N-{1-[2-(3-cyanophenylamino)-6-propylpyrimidin-4-yl]pyrrolidin-3-yl}-2-methoxyacetamide], 0.22 nM; to `CCCc1cc(N2CC[C@H](NC(=O)Cc3cccnc3)C2)nc(Nc2cccc(C#N)c2)n1` [Example 77, (S)-N-{1-[2-(3-cyanophenylamino)-6-propylpyrimidin-4-yl]pyrrolidin-3-yl}-2-(pyridin-3-yl)acetamide], 0.15 nM.
With `CCCc1cc(N2CC[C@H](NC(=O)Cc3ccncc3)C2)nc(Nc2cccc(C#N)c2)n1` [Example 78, (S)-N-{1-[2-(3-cyanophenylamino)-6-propylpyrimidin-4-yl]pyrrolidin-3-yl}-2-(pyridin-4-yl)acetamide] the figure was 0.28 nM.
With `CCCc1cc(N2CC[C@H](NC(=O)C/C=C/c3ccccc3)C2)nc(Nc2cccc(C#N)c2)n1` [Example 79, (S,E)-N-{1-[2-(3-cyanophenylamino)-6-propylpyrimidin-4-yl]pyrrolidin-3-yl}-4-phenylbut-3-enamide] the figure was 0.44 nM.
`CCCc1cc(N2CC[C@H](NC(=O)Cc3cccs3)C2)nc(Nc2cccc(C#N)c2)n1` [Example 80, (S)-N-{1-[2-(3-cyanophenylamino)-6-propylpyrimidin-4-yl]pyrrolidin-3-yl}-2-(thiophen-2-yl)acetamide] registered an EC50 of 0.17 nM.
Consider `CCCc1cc(N2CC[C@H](NC(=O)C(C)C)C2)nc(Nc2cccc(C#N)c2)n1` [Example 81, (S)-N-{1-[2-(3-cyanophenylamino)-6-propylpyrimidin-4-yl]pyrrolidin-3-yl}isobutyramide], for which a half-maximal response (EC50) required 0.205 nM.
To `CCCc1cc(N2CC[C@H](NC(=O)CC(F)(F)F)C2)nc(Nc2cccc(C#N)c2)n1` [Example 82, (S)-N-{1-[2-(3-cyanophenylamino)-6-propylpyrimidin-4-yl]pyrrolidin-3-yl}-3,3,3-trifluoropropanamide] belongs 0.048 nM; to `CCCCCCN[C@H]1CCN(c2cc(CCC)nc(Nc3cccc(C#N)c3)n2)C1` [Example 84, (S)-3-{4-[3-(hexylamino)pyrrolidin-1-yl]-6-propylpyrimidin-2-ylamino}benzonitrile], 0.031 nM.
`CCCN[C@H]1CCN(c2cc(CCC)nc(Nc3cccc(C#N)c3)n2)C1` [Example 85, (S)-3-{4-propyl-6-[3-(propylamino)pyrrolidin-1-yl]pyrimidin-2-ylamino}benzonitrile] showed an EC50 of 0.003 nM.
`CCCc1cc(N2CC[C@H](NCC3CCCCC3)C2)nc(Nc2cccc(C#N)c2)n1` [Example 86, (S)-3-{4-[3-(cyclohexylmethylamino)pyrrolidin-1-yl]-6-propylpyrimidin-2-ylamino}benzonitrile] showed an EC50 of 0.039 nM.
With `CCCc1cc(N2CC[C@H](NCc3ccccc3)C2)nc(Nc2cccc(C#N)c2)n1` [Example 87, (S)-3-{4-[3-(benzylamino)pyrrolidin-1-yl]-6-propylpyrimidin-2-ylamino}benzonitrile] the figure was 0.048 nM; with `CCCc1cc(N2CC[C@H](NCCc3ccccc3)C2)nc(Nc2cccc(C#N)c2)n1` [Example 88, (S)-3-{4-[3-(phenethylamino)pyrrolidin-1-yl]-6-propylpyrimidin-2-ylamino}benzonitrile], 0.041 nM; with `CCCc1cc(N2CC[C@H](NCCCc3ccccc3)C2)nc(Nc2cccc(C#N)c2)n1` [Example 89, (S)-3-{4-[3-(3-phenylpropylamino)pyrrolidin-1-yl]-6-propylpyrimidin-2-ylamino}benzonitrile], 0.08 nM.
For `CCCc1cc(N2CC[C@H](NCc3cccc(F)c3)C2)nc(Nc2cccc(C#N)c2)n1` [Example 90, (S)-3-{4-[3-(3-fluorobenzylamino)pyrrolidin-1-yl]-6-propylpyrimidin-2-ylamino}benzonitrile], a half-maximal effect (EC50) was put at 0.091 nM.
Regarding `CCCc1cc(N2CC[C@H](NCc3ccc(O)cc3)C2)nc(Nc2cccc(C#N)c2)n1` [Example 91, (S)-3-{4-[3-(4-hydroxybenzylamino)pyrrolidin-1-yl]-6-propylpyrimidin-2-ylamino}benzonitrile], the EC50 stood at 0.014 nM.
To `CCCc1cc(N2CC[C@H](NCc3ccc(CC)cc3)C2)nc(Nc2cccc(C#N)c2)n1` [Example 92, (S)-3-{4-[3-(4-ethylbenzylamino)pyrrolidin-1-yl]-6-propylpyrimidin-2-ylamino}benzonitrile] belongs 0.057 nM; to `CCCc1cc(N2CC[C@H](NCCC(C)C)C2)nc(Nc2cccc(C#N)c2)n1` [Example 93, (S)-3-{4-[3-(isopentylamino)pyrrolidin-1-yl]-6-propylpyrimidin-2-ylamino}benzonitrile], 0.01 nM.
With `CCCCCN[C@H]1CCN(c2cc(CCC)nc(Nc3cccc(C#N)c3)n2)C1` [Example 94, (S)-3-{4-[3-(pentylamino)pyrrolidin-1-yl]-6-propylpyrimidin-2-ylamino}benzonitrile] the figure was 0.041 nM.
To `CCCc1cc(N2CC[C@H](NCC(C)CC)C2)nc(Nc2cccc(C#N)c2)n1` (stereo partly drawn) [Example 95, 3-{4-[(3S)-3-(2-methylbutylamino)pyrrolidin-1-yl]-6-propylpyrimidin-2-ylamino}benzonitrile] belongs 0.081 nM; to `CCCc1cc(N2CC[C@H](NCC(C)C)C2)nc(Nc2cccc(C#N)c2)n1` [Example 96, (S)-3-{4-[3-(isobutylamino)pyrrolidin-1-yl]-6-propylpyrimidin-2-ylamino}benzonitrile], 0.017 nM.
For `CCCc1cc(N2CC[C@H](NCc3ccc(OC)cc3)C2)nc(Nc2cccc(C#N)c2)n1` [Example 97, (S)-3-{4-[3-(4-methoxybenzylamino)pyrrolidin-1-yl]-6-propylpyrimidin-2-ylamino}benzonitrile], the EC50 was 0.046 nM.
